The data set is described as follows: RP, Thermo Scientific Acclaim RSLC 120 C18, 100 × 2.1 mm, 2.2 µm, 30 °C, 0.2 mL/min, estimated dead time 1.1 min; A: 90% water + 10% methanol + 0.01% formic acid + 5 mM ammonium formate, pH 3.61; B: methanol + 0.01% formic acid + 5 mM ammonium formate, pH 3.61; gradient (min/%B) 0/1 1/1 2/39 13/99.9 15/99.9 15.1/1 20.1/1. The conditions noted are these: stereoisomer not certain.

Structures are written as SMILES.

Consider `NS(=O)(=O)c1ccc(N2CCCCS2(=O)=O)cc1` [Sulthiame], for which the LC retention time was 4.11 min.

For the compound `CNS(=O)(=O)Cc1ccc2[nH]cc(CCN(C)C)c2c1` [Sumatriptan], the LC retention time was 3.43 min.

In the case of `CCCCC1(COC(=O)CCC(=O)O)C(=O)N(c2ccccc2)N(c2ccccc2)C1=O` [Suxibuzone], the LC retention time was 9.61 min.

For the compound `CNCC(O)c1ccc(O)cc1` (stereo unspecified) [Synephrine], the LC retention time was 1.6 min.

On to `CNC(C)C(O)c1ccc(O)cc1` (stereo unspecified) [Synphrine-Methyl], for which the LC retention time was 2.05 min.

In the case of `CCOP(=O)(OCC)OP(=O)(OCC)OCC` [TEPP], the LC retention time is 6.49 min.

On to `CCCCCc1cc(O)c2c(c1)OC(C)(C)C1CCC(CO)=CC21` (stereo unspecified) [THC-OH. 11-OH-THC], for which the LC retention time was 12.5 min.

Regarding `O=C(Nc1cccc2cccnc12)c1nn(CCCCCF)c2ccccc12` [THJ-5F], the LC retention time is 12.5 min.

Consider `CCCCCn1nc(C(=O)c2cccc3ccccc23)c2ccccc21` [THJ-018], for which the LC retention time was 13.1 min.

Turning to `O=C(c1cccc2ccccc12)c1nn(CCCCCF)c2ccccc12` [THJ-2201], the LC retention time is 11.9 min.

Consider `O=S(O)(O)=S` [THJ], for which the LC retention time is 13.7 min.

Regarding `COc1ccc(CC(C)N)c(OC)c1OC` (stereo unspecified) [TMA], the LC retention time is 4.16 min.

For the compound `Nc1c2c(nc3ccccc13)CCCC2` [Tacrine], the LC retention time is 4.77 min.

`NN1CC(=O)N2C(Cc3c([nH]c4ccccc34)C2c2ccc3c(c2)OCO3)C1=O` (stereo unspecified) [Tadalafil-Amino]: the LC retention time was 7.84 min.

Turning to `O=C1NCC(=O)N2C1Cc1c([nH]c3ccccc13)C2c1ccc2c(c1)OCO2` (stereo unspecified) [Tadalafil-Nor], the LC retention time was 7.99 min.

Regarding `CCCCN1CC(=O)N2C(Cc3c([nH]c4ccccc34)C2c2ccc3c(c2)OCO3)C1=O` (stereo unspecified) [Tadalafil-n-Butyl], the LC retention time is 10.2 min.

As to `CN1CC(=O)N2C(Cc3c([nH]c4ccccc34)C2c2ccc3c(c2)OCO3)C1=O` (stereo unspecified) [Tadalafil], the LC retention time was 8.26 min.

As to `CC(C)(C)NCC(O)COc1ccc(NC(=O)NC2CCCCC2)cc1` (stereo unspecified) [Talinolol], the LC retention time was 6.58 min.

As for `CCC(=C(c1ccccc1)c1ccc(OCCN(C)C)cc1)c1ccccc1` [Tamoxifen], the LC retention time was 11 min.

As for `CCC(c1cccc(O)c1)C(C)CNC` (stereo unspecified) [Tapentadol-N-Desmethyl], the LC retention time was 5.14 min.

With `CCC(c1cccc(O)c1)C(C)CN(C)C` (stereo unspecified) [Tapentadol], the LC retention time was 5.01 min.

Turning to `CC(C)(C)C(O)(CCc1ccc(Cl)cc1)Cn1cncn1` (stereo unspecified) [Tebuconazole], the LC retention time was 10.9 min.

For the compound `CCc1ccc(C(=O)NN(C(=O)c2cc(C)cc(C)c2)C(C)(C)C)cc1` [Tebufenozide], the LC retention time was 10.4 min.

`CCc1nn(C)c(C(=O)NCc2ccc(C(C)(C)C)cc2)c1Cl` [Tebufenpyrad]: the LC retention time is 12.2 min.

With `CCOP(=S)(Oc1cnc(C(C)(C)C)nc1)OC(C)C` (stereo unspecified) [Tebupirimphos], the LC retention time is 12.3 min.

For the compound `CC(C)N(Cc1ccccc1)C(=O)C(C)(C)C` [Tebutame], the LC retention time is 10.2 min.

Take `CNC(=O)N(C)c1nnc(C(C)(C)C)s1` [Tebuthiuron]: the LC retention time is 7.25 min.

On to `O=C(NC(=O)c1c(F)cccc1F)Nc1cc(Cl)c(F)c(Cl)c1F` [Teflubenzuron], for which the LC retention time is 12.5 min.

Consider `Cc1c(F)c(F)c(COC(=O)C2C(C=C(Cl)C(F)(F)F)C2(C)C)c(F)c1F.Cc1c(F)c(F)c(COC(=O)C2C(C=C(Cl)C(F)(F)F)C2(C)C)c(F)c1F` (stereo unspecified) [Tefluthrin], for which the LC retention time is 13.4 min.

`CCC1OC(=O)C(C)C(=O)C(C)C(OC2OC(C)CC(N(C)C)C2O)C(C)(OC)CC(C)C(=O)C(C)C2N(CCCCn3cnc(-c4cccnc4)c3)C(=O)OC12C` (stereo unspecified) [Telithromycin]: the LC retention time is 7.25 min.

`CCCc1nc2c(C)cc(-c3nc4ccccc4n3C)cc2n1Cc1ccc(-c2ccccc2C(=O)O)cc1` [Telmisartan]: the LC retention time is 10.3 min.

Turning to `CN1C(=O)C(O)N=C(c2ccccc2)c2cc(Cl)ccc21` (stereo unspecified) [Temazepam], the LC retention time is 7.94 min.

With `COP(=S)(OC)Oc1ccc(Sc2ccc(OP(=S)(OC)OC)cc2)cc1` [Temephos], the LC retention time was 12.4 min.

For the compound `CC(Cn1cnc2c(N)ncnc21)OCP(=O)(O)O` (stereo unspecified) [Tenofovir], the LC retention time is 2.69 min.

In the case of `COc1cc2nc(N3CCN(C(=O)C4CCCO4)CC3)nc(N)c2cc1OC` (stereo unspecified) [Terazosin], the LC retention time was 4.92 min.

Turning to `Cc1[nH]c(=O)n(C(C)(C)C)c(=O)c1Cl` [Terbacil], the LC retention time was 7.33 min.

For the compound `CN(CC=CC#CC(C)(C)C)Cc1cccc2ccccc12` [Terbinafine], the LC retention time is 11 min.

For `CCOP(=S)(OCC)SCS(=O)(=O)C(C)(C)C` [Terbufos sulfone], the LC retention time was 9.01 min.

In the case of `CCOP(=S)(OCC)SCS(=O)C(C)(C)C` (stereo unspecified) [Terbufos-sulfoxide], the LC retention time is 9 min.

Turning to `CCOP(=S)(OCC)SCSC(C)(C)C` [Terbufos], the LC retention time is 12.2 min.

For the compound `CCNc1nc(NC(C)(C)C)nc(OC)n1` [Terbumeton], the LC retention time was 9.16 min.

`CC(C)(C)NCC(O)c1cc(O)cc(O)c1` (stereo unspecified) [Terbutaline]: the LC retention time was 3.11 min.

For `CC(C)(C)Nc1nc(N)[nH]c(=O)n1` [Terbuthylazine-desethyl-2-hydroxy], the LC retention time was 3.99 min.

Turning to `CC(C)(C)Nc1nc(N)nc(Cl)n1` [Terbuthylazine-desethyl], the LC retention time was 7.48 min.

With `CCNc1nc(Cl)nc(NC(C)(C)C)n1` [Terbuthylazine], the LC retention time is 9.36 min.

On to `CCNc1nc(NC(C)(C)C)nc(SC)n1` [Terbutryn], for which the LC retention time is 10.2 min.

For the compound `CC(C)N1CCN(c2ccc(OCC3COC(Cn4cncn4)(c4ccc(Cl)cc4Cl)O3)cc2)CC1` (stereo unspecified) [Terconazole], the LC retention time is 8.2 min.

In the case of `CC(C)(C)c1ccc(C(O)CCCN2CCC(C(O)(c3ccccc3)c3ccccc3)CC2)cc1` (stereo unspecified) [Terfenadine], the LC retention time is 9.69 min.

`Cc1ncc([N+](=O)[O-])n1CCCO` [Ternidazole]: the LC retention time is 4.21 min.

As for `CC(CC(c1ccccc1)c1ccccc1)NC(C)(C)C` (stereo unspecified) [Terodiline], the LC retention time was 7.91 min.

In the case of `CC(C)(C)NCC(O)COc1cccc2c1SCCC2` (stereo unspecified) [Tertatolol], the LC retention time was 6.76 min.

Regarding `CC12CCC(=O)C=C1CCC1C2CCC2(C)C(OC(=O)c3ccccc3)CCC12` (stereo unspecified) [Testosterone benzoate], the LC retention time is 13.8 min.

On to `CC12CCC(=O)C=C1CCC1C2CCC2(C)C1CCC2(C)O` (stereo not drawn) [Testosterone- 17-alpha-methyl], for which the LC retention time is 10.4 min.

Turning to `CCCCNc1ccc(C(=O)OCCN(C)C)cc1` [Tetracaine], the LC retention time is 6.43 min.

Regarding `COP(=O)(OC)OC(=CCl)c1cc(Cl)c(Cl)cc1Cl` [Tetrachlorvinphos (Stirofos)], the LC retention time is 10.6 min.

As for `FC(F)C(F)(F)OCC(Cn1cncn1)c1ccc(Cl)cc1Cl` (stereo unspecified) [Tetraconazole], the LC retention time was 10.1 min.

The values are drawn from the RepoRT retention time repository (doi:10.1021/acs.analchem.2c02893).
